Assay results as given in ChEMBL document CHEMBL2169838, “Synthesis and biological evaluation of the 1-arylpyrazole class of σ(1) receptor antagonists: identification of 4-{2-[5-methyl-1-(naphthalen-2-yl)-1H-pyrazol-3-yloxy]ethyl}morpholine (S1RA, E-52862)” (J Med Chem, 2012).
The source made the active and inactive calls. The rule behind the calls is not given here.

Legend:
[1] = Displacement of [3H]di-o-tolylguanidine from sigma 2 receptor in guinea pig brain membranes after 120 mins by scintillation counter; format: cell membranes, Cavia porcellus, Membrane
[2] = Intrinsic clearance in human liver microsomes assessed as per mg of protein at 10 uM; format: ADME, Microsome; settings: read-out: CLH
[3] = target: Sigma non-opioid intracellular receptor 1 (Homo sapiens, UniProt Q99720); test: biochemical
Sequence of Sigma non-opioid intracellular receptor 1 (Q99720 whole entry): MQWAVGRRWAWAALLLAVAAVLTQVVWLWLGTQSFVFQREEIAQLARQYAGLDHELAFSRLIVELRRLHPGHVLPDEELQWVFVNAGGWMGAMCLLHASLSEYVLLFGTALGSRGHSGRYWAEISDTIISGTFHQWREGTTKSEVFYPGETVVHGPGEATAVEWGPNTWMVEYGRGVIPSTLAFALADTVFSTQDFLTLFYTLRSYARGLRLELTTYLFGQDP
Description: Displacement of [3H](+)pentazocine from human sigma 1 receptor transfected in HEK293 cell membranes after 120 mins by scintillation counter

Mus musculus [4] = test: Inhibition of capsaicin-induced mechanical hypersensitivity in CD1 mouse assessed as paw withdrawal latency at 32 mg/kg, ip administered 15 mins prior to capsaicin challenge measured 30 mins post capsaicin challenge; format: functional; settings: route intraperitoneal
[5] = target: Voltage-gated inwardly rectifying potassium channel KCNH2 (Homo sapiens, UniProt Q12809)
Sequence of Voltage-gated inwardly rectifying potassium channel KCNH2 (Q12809 whole entry): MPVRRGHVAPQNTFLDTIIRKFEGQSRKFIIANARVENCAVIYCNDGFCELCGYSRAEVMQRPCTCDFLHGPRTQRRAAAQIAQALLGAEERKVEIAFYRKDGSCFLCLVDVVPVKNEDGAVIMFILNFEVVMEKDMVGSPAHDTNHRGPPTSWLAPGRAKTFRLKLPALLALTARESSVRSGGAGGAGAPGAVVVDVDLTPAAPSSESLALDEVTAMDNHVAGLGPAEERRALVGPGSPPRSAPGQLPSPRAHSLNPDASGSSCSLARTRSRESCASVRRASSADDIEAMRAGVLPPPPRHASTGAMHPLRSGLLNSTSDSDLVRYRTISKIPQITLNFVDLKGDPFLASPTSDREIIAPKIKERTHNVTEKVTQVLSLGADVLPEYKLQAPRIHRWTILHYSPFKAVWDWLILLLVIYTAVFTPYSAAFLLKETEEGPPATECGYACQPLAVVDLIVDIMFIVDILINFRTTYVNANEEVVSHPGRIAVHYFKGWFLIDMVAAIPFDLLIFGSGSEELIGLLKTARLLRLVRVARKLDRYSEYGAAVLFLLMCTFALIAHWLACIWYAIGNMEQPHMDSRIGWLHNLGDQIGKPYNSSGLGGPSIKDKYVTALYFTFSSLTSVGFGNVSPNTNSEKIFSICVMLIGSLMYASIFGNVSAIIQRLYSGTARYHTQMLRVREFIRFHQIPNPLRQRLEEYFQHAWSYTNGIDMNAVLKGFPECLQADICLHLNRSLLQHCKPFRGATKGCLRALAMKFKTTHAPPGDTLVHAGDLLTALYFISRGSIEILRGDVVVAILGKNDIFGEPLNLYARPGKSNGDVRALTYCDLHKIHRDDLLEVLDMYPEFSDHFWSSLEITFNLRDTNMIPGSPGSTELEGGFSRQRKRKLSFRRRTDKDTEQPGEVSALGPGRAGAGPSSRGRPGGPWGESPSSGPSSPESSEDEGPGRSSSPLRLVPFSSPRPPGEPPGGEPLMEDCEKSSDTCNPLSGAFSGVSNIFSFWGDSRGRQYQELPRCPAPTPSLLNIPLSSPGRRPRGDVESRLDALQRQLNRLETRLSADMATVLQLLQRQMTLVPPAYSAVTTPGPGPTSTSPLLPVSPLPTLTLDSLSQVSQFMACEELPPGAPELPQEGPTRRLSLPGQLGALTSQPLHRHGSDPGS
Description: Inhibition of human ERG transfected in HEK293 cell membranes by whole cell patch clamp assay

Mus musculus [6] = test: Analgesic activity in CD1 mouse assessed as inhibition of capsaicin-induced mechanical hypersensitivity at 16 mg/kg, ip administered 15 mins prior to capsaicin challenge measured 30 mins post capsaicin challenge; format: functional; settings: route intraperitoneal
Mus musculus [7] = test: Antiallodynic activity in CD1 mouse partial sciatic nerve ligation model assessed as inhibition of mechanical allodynia at 16 to 64 mg/kg, ip administered 30 mins by von Frey test; format: functional, organism-based
Mus musculus [8] = test: Antihyperalgesic activity in CD1 mouse partial sciatic nerve ligation model assessed as inhibition of thermal hyperalgesia at 16 to 64 mg/kg, ip administered 45 mins by plantar test; format: functional, organism-based
Mus musculus [9] = test: Neurotoxicity in CD1 mouse assessed as motor impairment at 32 to 64 mg/kg, ip measured after 30 to 180 mins by rotarod test; format: toxicity, organism-based; design: route intraperitoneal; settings: in vivo

Structure (SMILES)	Ki [1] [µM]	Ki [3] [µM]	also measured
c1ccc2cc(-n3ccc(OCCN4CCOCC4)n3)ccc2c1	> 1	0.0333	microsomal CLint at 10 µM [2]: 6 µL/min/mg; inhibition in vivo at 32 mg/kg (Mus musculus [4]): 55%; IC50 [5]: > 10 µM
Cc1cc(SCCN2CCOCC2)nn1-c1ccc(Cl)c(Cl)c1	> 1	0.0142	microsomal CLint at 10 µM [2]: 37 µL/min/mg; IC50 [5]: > 10 µM
Cc1cc(OCCCCn2ccc3c2CCCC3=O)nn1-c1ccc(Cl)c(Cl)c1	> 1	> 1	–
Cc1cc(OCCN2CCOCC2)nn1-c1ccc(Cl)cc1Cl	> 1	0.044	microsomal CLint at 10 µM [2]: 25 µL/min/mg
Cc1cc(OCCN2CCOCC2)nn1-c1ccc(Cl)c(Cl)c1	> 1	–	microsomal CLint at 10 µM [2]: 12 µL/min/mg; inhibition in vivo at 16 mg/kg (Mus musculus [6]): 25%
Cc1cc(OCCNC2CCCCC2)nn1-c1ccc(Cl)c(Cl)c1	0.0088	0.0085	–
Cc1cc(OCCN2CCOCC2)nn1-c1ccccc1	> 1	> 1	–
Clc1ccc(-n2ccc(OCCCCN3CCSCC3)n2)cc1Cl	0.344	0.0102	–
CCN(CC)CCCCOc1ccn(-c2ccc(Cl)c(Cl)c2)n1	0.104	0.0172	–
Cc1cc(OCCCCN2CCN(C)CC2)nn1-c1ccc(Cl)c(Cl)c1	0.102	0.0099	–
COc1ccc(-n2nc(OCCN3CCOCC3)cc2C)cc1	> 1	> 1	–
CN1CCN(CC(O)COc2ccn(-c3ccc(Cl)c(Cl)c3)n2)CC1 (stereo unspecified)	> 1	0.233	–
Cc1cc(OCCCCN2CCCC2)nn1-c1ccc(Cl)c(Cl)c1	0.0126	0.0069	–
Cc1cc(OCCCCN2CCC(c3ccccc3)CC2)nn1-c1ccc(Cl)c(Cl)c1	0.0267	0.026	–
Cc1cc(OCCCCN2CCCCC2)nn1-c1ccc(Cl)c(Cl)c1	0.0475	0.0071	–
Clc1ccc(-n2ccc(OCCN3CCCCCC3)n2)cc1Cl	–	0.0089	–
CN(CCCCOc1ccn(-c2ccc(Cl)c(Cl)c2)n1)Cc1ccccc1	0.0463	0.024	–
Cc1cc(OCCN2C[C@@H](C)O[C@@H](C)C2)nn1-c1ccc2ccccc2c1	> 1	0.0338	microsomal CLint at 10 µM [2]: 25 µL/min/mg; IC50 [5]: 7.4 µM
Cc1cc(OCCCCN2CCOCC2)nn1-c1ccc(Cl)c(Cl)c1	0.245	0.0133	–
O=C(CCCN1CCC(O)(c2ccc(Cl)cc2)CC1)c1ccc(F)cc1 [HALOPERIDOL]	0.022	–	–
Cc1cc(OCCN2CCCCCC2)nn1-c1ccc(Cl)c(Cl)c1	0.0635	0.0094	–
O=S(=O)(CCN1CCOCC1)OCCOc1ccn(-c2ccc(Cl)c(Cl)c2)n1	> 1	0.879	–
Cc1cc(OCCN2CCCC2)nn1-c1ccc(Cl)c(Cl)c1	0.483	0.0052	–
c1cn(C2CCCCC2)nc1OCCN1CCOCC1	> 1	0.0231	inhibition in vivo at 16 mg/kg (Mus musculus [6]): 20%; IC50 [5]: > 10 µM

Structure (SMILES)	Ki [1] [µM]	Ki [3] [µM]	also measured
CC(C)(C)n1ccc(OCCN2CCOCC2)n1	> 1	> 1	–
CC1CCN(CCOc2ccn(-c3ccc(Cl)c(Cl)c3)n2)CC1	0.0328	0.0086	–
Cc1cc(OCCN2CCOCC2)n(-c2ccc3ccccc3c2)n1	> 1	> 1	–
O=C(CN1CCCCC1)Nc1ccn(-c2ccc(Cl)c(Cl)c2)n1	> 1	0.0808	–
CC(=O)c1c(OCCN2CCOCC2)nn(-c2ccc(Cl)c(Cl)c2)c1C	> 1	0.741	–
Cc1cc(OCCN2CCCCC2)nn1-c1ccc(Cl)c(Cl)c1	0.209	0.0055	–
Cc1cc(OCCN2CCOCC2=O)nn1-c1ccc2ccccc2c1	> 1	> 1	–
Cc1cc(OCCN2CCOCC2)nn1-c1cccc(Cl)c1	> 1	0.18	–
Cc1cc(OCCN2CCCCC2)nn1-c1ccc2ccccc2c1	0.0847	0.01	–
Clc1ccc(-n2ccc(OCCN3CCOCC3)n2)cc1	0.357	0.0178	–
Clc1ccc(-n2ccc(NCCN3CCCCC3)n2)cc1Cl	0.0905	0.0095	–
CC(C)C[C@H](CN)CC(=O)O [PREGABALIN]	–	–	inhibition (Mus musculus [7]): Active; inhibition (Mus musculus [8]): Active; Activity (Mus musculus [9]): Toxic
Cc1cc(OCCN2CCN(c3ccccc3)CC2)nn1-c1ccc(Cl)c(Cl)c1	0.563	0.0148	–
Cc1cc(OCCCCN2C[C@@H](C)O[C@@H](C)C2)nn1-c1ccc2ccccc2c1	0.226	0.065	–
CN1CCN(CCc2ccc(Cl)c(Cl)c2)CC1	0.318	0.0063	–
COCCN(C)CCCCOc1ccn(-c2ccc(Cl)c(Cl)c2)n1	0.0663	0.0082	–
OC(COc1ccn(-c2ccc(Cl)c(Cl)c2)n1)CN1CCOCC1 (stereo unspecified)	> 1	0.128	–
Clc1ccc(-n2ccc(OCCCN3CCOCC3)n2)cc1Cl	0.394	0.0161	–
Cc1cc(OCCCCN2CCOCC2)nn1-c1ccc2ccccc2c1	0.428	0.0991	–
Clc1ccc(-n2ccc(OCCCCN3CCOCC3)n2)cc1Cl	0.829	0.0176	–
Clc1ccc(-n2ccc(OCCCN3CCCCC3)n2)cc1Cl	0.0372	0.0096	–
Clc1ccc(-n2ccc(OCCN3CCCCC3)n2)cc1Cl	0.0647	0.0167	–
CCN(CC)CCOc1cc(C)n(-c2ccc3ccccc3c2)n1	0.589	0.047	–
Cc1cc(OCCN2CCCC2)nn1-c1ccc2ccccc2c1	0.395	0.0099	–

Structure (SMILES)	Ki [1] [µM]	Ki [3] [µM]	also measured
Cc1cc(OCCCN2CCOCC2)nn1-c1ccc(Cl)c(Cl)c1	0.638	0.0189	–
Cc1c(OCCN2CCOCC2)nn(-c2ccc(Cl)c(Cl)c2)c1C	0.351	0.0094	–
Cc1cc(OCCN2CCC(C)CC2)nn1-c1ccc(Cl)c(Cl)c1	0.161	0.0084	–
CC(=O)C1CCN(CCOc2ccn(-c3ccc(Cl)c(Cl)c3)n2)CC1	> 1	0.0072	microsomal CLint at 10 µM [2]: 7 µL/min/mg; inhibition in vivo at 16 mg/kg (Mus musculus [6]): 73%; IC50 [5]: 4.5 µM
CC(C)c1cc(OCCN2CCOCC2)nn1-c1ccc(Cl)c(Cl)c1	> 1	0.172	–
CCOC(=O)N1CCN(CCOc2cc(C)n(-c3ccc(Cl)c(Cl)c3)n2)CC1	> 1	0.044	microsomal CLint at 10 µM [2]: 26 µL/min/mg
Clc1ccc(-n2ccc(NCCN3CCOCC3)n2)cc1Cl	0.562	0.0394	–
Cc1cc(OCCCN2CCN(C)CC2)nn1-c1ccc(Cl)c(Cl)c1	0.17	0.0133	–
Clc1ccc(-n2ccc(OCCN3CCOCC3)n2)cc1Cl	0.28	0.0082	–
CC(=O)N1CCN(CCCCOc2cc(C)n(-c3ccc4ccccc4c3)n2)CC1	0.324	0.296	–
C[C@@H]1CN(CCCCOc2ccn(-c3ccc(Cl)c(Cl)c3)n2)C[C@H](C)O1	0.153	0.0148	–
Cc1cc(OCCCCn2ccnc2)nn1-c1ccc(Cl)c(Cl)c1	> 1	0.854	–
CC(=O)N1CCN(CCOc2cc(C)n(-c3ccc4ccccc4c3)n2)CC1	> 1	0.0834	–
CCN(CC)CCCCOc1cc(C)n(-c2ccc(Cl)c(Cl)c2)n1	0.0455	0.0117	–
Clc1ccc(-n2ccc(OCCOCCN3CCCCC3)n2)cc1Cl	0.0142	0.0368	–
Cc1cc(OCCN2CCN(C)CC2)nn1-c1ccc(Cl)c(Cl)c1	> 1	0.0111	microsomal CLint at 10 µM [2]: 3 µL/min/mg; inhibition in vivo at 16 mg/kg (Mus musculus [6]): 27%; IC50 [5]: 7.4 µM
Clc1ccc(-n2ccc(OCCN3CCCC3)n2)cc1Cl	0.0237	0.0157	–
Cc1cc(OCCCN2CCCC2)nn1-c1ccc(Cl)c(Cl)c1	0.062	0.0104	–
CN1CCN(CCCOc2ccn(-c3ccc(Cl)c(Cl)c3)n2)CC1	0.307	0.0165	–
CCN(CC)CCOc1cc(C)n(-c2ccc(Cl)c(Cl)c2)n1	0.25	0.0099	–
Cc1cc(OCCN2CCC(n3cnc4cccnc43)CC2)nn1-c1ccc(Cl)c(Cl)c1	0.435	0.016	–
Clc1ccc(-n2nc(OCCN3CCOCC3)cc2-c2ccccc2)cc1Cl	> 1	0.224	–
Cc1c(OCCN2CCOCC2)nn(-c2ccc3ccccc3c2)c1C	> 1	0.139	–
Cc1cc(OCCn2ccnc2)nn1-c1ccc(Cl)c(Cl)c1	> 1	0.294	–
